US9717714B2, “Spirocyclic CETP inhibitors” (Merck Sharp & Dohme Corp., priority 2012, dated 2017)

Columns and labels:
[1] = patients on baseline statin therapy, compared with just a statin; cited from earlier work
CETP = CETP (Homo sapiens (Human), UniProt P11597); experiment: Scintillation Proximity Assay (SPA) for CETP activity; format: biochemical; conditions: 15 nM CETP
Experimental: Protocol: Scintillation Proximity Assay (SPA) for CETP Activity
First, low density lipoprotein (LDL) (Meridian) was biotinylated by incubating LDL with biotin for 1 hour on ice, after which it was dialyzed to remove free biotin. Then compounds at varying concentrations were incubated with 15 nM CETP (reagent production group, In Vitro Pharmacology, MRL Rahway) and 50 ug/ml of the biotinylated LDL in 50 mM HEPES, 150 mM NaCl, pH 7.4, for 1 hour at 37° C. The reaction was started by adding ^3H-cholesterol ester high density lipoprotein (HDL) (American Radiochemicals Corp) at a concentration of ˜0.6 nM. The reaction proceeded for 2 hours at 37° C., after which time it was quenched by the addition of 12% acetic acid. PVT streptavadin-coated scintillation proximity beads, which had been brought to room temperature, were then added at a concentration of 4 mg/ml. The assay was then mixed and counted after one half hour in a Microbeta plate reader.

Sequence of CETP (P11597 18-493): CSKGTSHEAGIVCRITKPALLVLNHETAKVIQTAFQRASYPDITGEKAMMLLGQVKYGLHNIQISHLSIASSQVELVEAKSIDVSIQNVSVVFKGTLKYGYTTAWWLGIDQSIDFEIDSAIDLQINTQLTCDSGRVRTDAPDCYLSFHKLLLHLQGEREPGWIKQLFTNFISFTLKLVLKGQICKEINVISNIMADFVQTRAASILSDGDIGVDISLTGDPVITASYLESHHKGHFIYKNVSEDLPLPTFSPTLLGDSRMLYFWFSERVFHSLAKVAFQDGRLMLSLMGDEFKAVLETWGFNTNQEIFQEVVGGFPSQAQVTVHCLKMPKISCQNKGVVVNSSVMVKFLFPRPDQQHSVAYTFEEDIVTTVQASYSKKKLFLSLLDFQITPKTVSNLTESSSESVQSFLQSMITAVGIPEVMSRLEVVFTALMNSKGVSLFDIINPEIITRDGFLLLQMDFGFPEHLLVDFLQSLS

Row | IC50 (CETP) | Compound | decrease of LDL-C [1] | increase of HDL-C [1]
1 |  | COc1cc(F)c(C(C)C)cc1-c1ccc(C(F)(F)F)cc1CN1C(=O)O[C@H](c2cc(C(F)(F)F)cc(C(F)(F)F)c2)[C@@H]1C [anacetrapib] | 40% | 138%
2 | 6.3 µM | COc1ccc(-c2ccc(C(=O)O)cc2C)cc1-c1cnc(N(C)C)nc1CN1C(=O)O[C@@H](c2cc(C(F)(F)F)cc(C(F)(F)F)c2)C12CC2 [Example 8, 3′-[4-({(7S)-7-[3,5-bis(trifluoromethyl)phenyl]-5-oxo-6-oxa-4-azaspiro[2.4]hept-4-yl}methyl)-2-(dimethylamino)pyrimidin-5-yl]-4′-methoxy-2-methylbiphenyl-4-carboxylic acid] |  | 
